Where two headings read alike, the source gives them in different places.
What was measured:
[1] = test system: human bronchial epithelial cell (HBE); experiment: Short circuit current (Isc) of cultured human bronchial epithelial cells in Ussing chambers; format: cell-based; settings: for Sodium current: 70 nM
Protocol: Tertiary HBE cell monolayers grown to confluence were mounted in modified Ussing chambers, immersed in Krebs buffer (KBR) solution and bubbled with 95% 02/5% C02 warmed to 37 C.
Cells were left to equilibrate for 20 minutes before calibrating for background noise and fluid resistance. Transepithelial potential difference was then clamped to 0 mV using a WPI EVC 4000 voltage clamp. Ag/AgCl electrodes were used to monitor Isc. […] Once a response to amiloride was seen, it was washed out with KBR solution. […] 90 minutes following agent treatment, amiloride (10 uM) was added. Once the current was stable forskolin (10 uM in PBS) and then bumetanide (100 uM in PBS) was added.
Cells were left to equilibrate for 20 minutes before calibrating for background noise and fluid resistance. Transepithelial potential difference was then clamped to 0 mV using a WPI EVC 4000 voltage clamp. Ag/AgCl electrodes were used to monitor Isc. […] Once a response to amiloride was seen, it was washed out with KBR solution. […] 90 minutes following agent treatment, amiloride (10 uM) was added.

allergic sheep = settings: cited from earlier work
[2] = test system: Xenopus kidney epithelial cells (A6 cells); settings: exposure of the apical membrane, Vallet et al 1997, Chraibi et al 1998, cited from earlier work
human plasma kallikrein = target: T1, human plasma kallikrein (Homo sapiens, UniProt P03952); experiment: Inhibition of human plasma kallikrein, Ki; format: biochemical; settings: for Potency as inhibitor of plasma kallikrein compared with aprotinin (Trasylol), in words: in vitro
T1 construct: purchased Sigma (St. Louis, Mo.)
T1 sequence (P03952 391-638 limits assumed): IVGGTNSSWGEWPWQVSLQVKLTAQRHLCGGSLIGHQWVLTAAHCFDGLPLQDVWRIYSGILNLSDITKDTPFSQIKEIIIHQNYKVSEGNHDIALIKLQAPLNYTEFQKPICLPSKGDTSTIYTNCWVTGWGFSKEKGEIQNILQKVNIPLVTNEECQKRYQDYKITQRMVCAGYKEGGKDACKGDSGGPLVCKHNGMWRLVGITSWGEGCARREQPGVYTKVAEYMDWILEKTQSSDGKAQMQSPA
T1 sequence (P03952 20-390 partner limits assumed): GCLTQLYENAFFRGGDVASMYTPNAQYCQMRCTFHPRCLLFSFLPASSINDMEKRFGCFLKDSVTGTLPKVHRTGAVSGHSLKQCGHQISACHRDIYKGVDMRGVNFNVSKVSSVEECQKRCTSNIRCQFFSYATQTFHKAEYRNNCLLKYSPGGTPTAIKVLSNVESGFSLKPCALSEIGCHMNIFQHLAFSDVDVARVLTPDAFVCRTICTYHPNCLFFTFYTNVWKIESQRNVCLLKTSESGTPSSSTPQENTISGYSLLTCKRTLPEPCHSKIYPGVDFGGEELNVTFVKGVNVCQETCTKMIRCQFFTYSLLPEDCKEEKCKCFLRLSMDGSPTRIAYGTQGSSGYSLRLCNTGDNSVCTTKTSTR
Protocol: Proteases. Bovine trypsin, human plasmin, and bovine pancreatic kallikrein quantitation was carried out by active site titration using p-nitrophenyl p′-guanidinobenzoate HCl as previousl) described (Chase, T., and Shaw, E., (1970) Methods Enzmol. 19, 20-27). […] Human tissue kallikrein (Bayer, Germany) quantification was carried out by active site titration using p′nitrophenyl p′-guanidinobenzoate HCl as previously described (Chase, T., and Shaw, E., (1970) Methods Enzmol. 19, 20-27).
After 5 min. at 37° C., 15 μl of 2 mM GPK-AMC was added and the change in fluorescence (as above) was monitored. […] After 5 min. incubation at 37° C., 25 μl of 20 mM GPK-AMC was added and the change in fluorescence monitored. […] After 5 min. at 37° C. 15 μl of 20 mM PFR-AMC was added and the change in fluorescence monitored.

[3] = Isoelectric point by isoelectric focusing; format: physicochemical; settings: Ampholine PAGplate pH 3.5 to 9.5, refolded purified protein
Protocol: After staining, the migration distance from the cathodic edge of the gel to the different protein bands was measured. The pI of each unknown was determined by using a standard curve generated by a plot of the migration distance of standards versus the corresponding pI's. […] (Tenstad et al., 1994, Acta Physiol. Scand. 152:33-50).

guinea pig trachea = experiment: Tracheal mucus velocity (TMV) in the guinea-pig; format: in vivo; settings: 10 mM x 20 mins aerosol, 15 minutes after aerosol
Protocol: […] […] The procedure used in this Example is described in Newton et al. in “Cila, Mucus and Mucociliary Interactions,” Ed., Baum, G. L. et al., Marcel Dekker, New York, 1998; Newton et al., Ped. Pulm. S17, Abs. 364, 998).
A Bikunin formulation (50 ug/mL Bikunin (SEQ ID NO: 52) was prepared in HBBS containing 137 mM NaCl, 3 mM KC1, 3 mM KH2PO4, 8 mM Na2HPO4, 0.2% Tween-80, pH 7.1). The formulation was sterile filtered and endotoxin tested prior to use in this example. HBSS was used as a control solution. Hypnorm® (Fentanyl citrate 0.315 mg/mL and Fluanisone 10 mg/mL) was obtained from Janssen Animal Health and Hypnovel® (Midazolam 5 mg/mL) was obtained from Roche. Male Dunkin-Hartley guinea pigs (550-750 g) were supplied by David Hall, UK. Thermistor probes were obtained from Kane-May Ltd, UK. […]
TMV was monitored using a lead collimated miniature Beta particle detector probe arranged to detect the radioactivity emitted from an injected aliquot of ^32P-labelled Saccharomyces cerevisiae as it was transported on the tracheal mucociliary layer of an anaesthetized guinea pig (Newton and Hall 1998) FIG. 16(a) illustrates the arrangement of the syringe and beta probe. FIG. 16(b) illustrates the counts detected by the probe as the ^32P-labelled S.cerevisiae is transported along the tracheal mucociliary layer. […]
[…] TMV was monitored immediately and every 15 minutes for 30 minutes. […]

diseased patients = settings: inhalation; Robinson et al 1997, App et al 1990; cited from earlier work
[4] = test system: human bronchial epithelial cell (HBE); settings: 1.5 μg.ml−1 (70 nM), normal HBE cells; McAulay et al 1998; cited from earlier work

## α1-PI: serpin-family serine protease inhibitor alpha(1)-protease inhibitor
[1]; 50 μg.ml−1, normal HBE cells, further study
  Effect on Na+ Isc: without a significant effect
Allergic sheep; 10 mg, 30 min before or 1 h after antigen challenge, 6 h after challenge
  Antigen-induced reduction in TMV: attenuated
Allergic sheep; administered on its own (no antigen challenge), over a 6 h period
  Baseline TMV: no effect
Allergic sheep; given 6 h after antigen challenge, at 24 h after challenge
  Antigen-induced fall in TMV: significant reversal

## Aprotinin
[1]; 5 ug/mL, FIG. 20
  Sodium short circuit current: decrease
[2]
  Transepithelial Na+ transport: reduce
[2]; listed as aprotinin
  Transepithelial Na+ transport: reduced

## CC[C@H](C)[C@@H]1NC(=O)[C@H](Cc2ccccc2)NC(=O)[C@H](CC(N)=O)NC(=O)[C@H](CC(N)=O)NC(=O)[C@@H]2CSSC[C@@H]3NC(=O)[C@H](C)NC(=O)[C@H](CCC(=O)O)NC(=O)[C@H](CCC(=O)O)NC(=O)[C@H](CO)NC(=O)[C@H](CCCNC(=N)N)NC(=O)[C@H](Cc4ccc(O)cc4)NC(=O)[C@H](CO)NC(=O)[C@H](CC(N)=O)NC(=O)[C@H](CCCCN)NC(=O)[C@H](CC(N)=O)NC(=O)CNC(=O)[C@H](CCCNC(=N)N)NC(=O)[C@H](CSSC[C@H](NC(=O)[C@@H]4CCCN4C(=O)CNC(=O)[C@H]([C@@H](C)O)NC(=O)[C@H](C(C)C)NC(=O)[C@H](C)NC(=O)[C@H](CC(N)=O)NC(=O)[C@H](C)NC(=O)[C@H]([C@@H](C)O)NC(=O)[C@@H](NC(=O)[C@H](Cc4ccc(O)cc4)NC(=O)[C@H](CCC(=O)O)NC(=O)[C@H](CCC(=O)O)NC(=O)[C@@H](N)Cc4ccc(O)cc4)CSSC[C@@H](C(=O)N[C@@H](Cc4ccccc4)C(=O)N[C@@H](CCCNC(=N)N)C(=O)N[C@@H](CCC(N)=O)C(=O)O)NC(=O)[C@H](CCCNC(=N)N)NC(=O)[C@H](CC(C)C)NC(=O)[C@H](CCSC)NC3=O)C(=O)N[C@@H](CCCNC(=N)N)C(=O)N[C@@H](C)C(=O)N[C@@H](CO)C(=O)N[C@@H](Cc3ccccc3)C(=O)N3CCC[C@H]3C(=O)N[C@@H](CCCNC(=N)N)C(=O)N[C@@H](Cc3c[nH]c4ccccc34)C(=O)N[C@@H](Cc3ccc(O)cc3)C(=O)N[C@@H](Cc3ccccc3)C(=O)N[C@@H](CC(=O)O)C(=O)N[C@@H](C(C)C)C(=O)N[C@@H](CCC(=O)O)C(=O)N[C@@H](CCCNC(=N)N)C(=O)N[C@@H](CC(N)=O)C(=O)N[C@@H](CO)C(=O)N2)NC(=O)CNC(=O)CNC(=O)[C@H](Cc2ccc(O)cc2)NC1=O [Bikunin (102-159)]
Human plasma kallikrein; Kallikrein ([…] nM), Table 4B
  Ki: 7 nM
Human plasma kallikrein
  Potency as inhibitor of plasma kallikrein compared with aprotinin (Trasylol), in words: significantly more potent
[3]
  pI: 8.3

## Des Pro2-Ser10-Arg15-Asp24-Thr26-Glu31-Asn41-Glu53-Aprotinin [Aprotinin double mutein]
[1]; 0.5 to 5 ug/mL, 90 minute period
  Sodium short circuit current: dose dependently inhibited
[1]; 0.5 to 5 ug/mL, 90 minute period, listed as aprotinin double mutein
  Sodium short circuit current: decrease

## N=C(N)NC(=O)c1nc(Cl)c(N)nc1N [amiloride]
Guinea pig trachea
  TMV after aerosol: statistically significant increase
Diseased patients
  MCC in diseased patients: significantly increase

B1: Bikunin: Bikunin (SEQ ID NO: 52), two Kunitz domain human homologue of bovine aprotinin, used in airway and HBE studies (protein, listed as Homo sapiens)
chain: ADRERSIHDFCLVSKVVGRCRASMPRWWYNVTDGSCQLFVYGGCDGNSNNYLTKEECLKKCATVTENATGDLATSRNAADSSVPSAPRRQDSEDHSSDMFNYEEYCTANAVTGPCRASFPRWYFDVERNSCNNFIYGGCRGNKNSYRSEEACMLRCFRQQENPPLPLGSK
[1]; 90 minute period
  Sodium current: decreases
[1]; 90 minute period, listed as Bukinin
  Sodium current: inhibited
[1]; 5 μg.ml−1, normal HBE cells, further study
  Inhibition of Na+ Isc: 84%
[1]; 5 ug/mL, FIG. 20
  Sodium short circuit current: decrease
[4]
  Inhibition of Na+ Isc: 54%

B2: Recombinant Bikunin: fragment of placental bikunin containing both Kunitz domains (1-170), expressed in baculovirus/Sf9 cells (protein)
chain: B1 chain
Human plasma kallikrein
  Potency as inhibitor of plasma kallikrein compared with aprotinin (Trasylol), in words: more potent
Human plasma kallikrein; listed as bikunin(1-170)
  Potency as inhibitor of plasma kallikrein compared with aprotinin (Trasylol), in words: significantly more potent
